Experiment [1] concerns mesencephalic neurons (dopaminergic). The experiment in a line: Dopamine uptake in 6-OHDA treated embryonic mesencephalic cultures (Experiment 8). The format is cell-based, Wistar rat. As to conditions: 0.01-100 μM GPE, 4 μM 6-OHDA.
Description: Wistar rat ventral mesencephali from E15 (E1=plug) fetuses were dissected, pooled, and gently dissociate by repeated trituration in 3 ml of sterile modified Krebs-Ringer medium (Gibco, Life Technologies Ltd., NZ) supplemented per liter with 50,000 IU penicillin, 50 mg streptomycin, 1.26 g NaHCO3, and 2.2 g glucose. 2 ml of media was added and the suspension allowed to stand for 7 minutes, after which the supernatant was centrifuged for 7 minutes at 350 xg. The pellet was resuspended in serum-containing media: MEM media with 50,000 IU penicillin, 50 mg streptomycin, 1.26 g NaHCO3 and 5% fetal calf serum (Gibco). Cells were seeded at 2.5-4.0×10^5 trypan-excluding viable cells/cm^2 in sterile 24 well plates precoated for two hours with 5 μg/ml poly-L lysine in H2 O. Cultures were allowed to recover for 24 h at 37° C. in a humidified 95% air: 5% CO2 incubator. […]
Cultures were assayed for dopamine uptake using a modified procedure of Prochiantz et al., 1981 (Nature, Vol. 293, No., 5833). […] The wells were then rinsed with 250 μl 1% Triton X-100 and the contents added to the appropriate scintillation vial containing 4 ml of Ready safe scintillation fluid (Beckman, Palo Alto, Calif.). […]
The test system of experiment [2] is substantia nigra neurons. The experiment in a line: Medial forebrain bundle transection, TH immunopositive cell survival (Experiment 7). The format is in vivo, Wistar rats. As to conditions: lesioned side; daily supranigral GPE 0.3 μg for two weeks. The method, then:
Adult male Wistar rats (200-220 g) were anaesthetized with 75 mg/kg Nembutal and positioned in a stereotaxic apparatus. Unilateral transection of the medial forebrain bundle which contains the ascending nigral dopaminergic projection fibers was made 1.3 mm rostral to the rostral tip of the substantia nigra using a retractable wire knife (David Kopf Instruments, Tujunga, Calif.). The knife was lowered into the brain using the following coordinates from the atlas of Paxinos and Watson (1996), Sydney: Academic Press: 3.3 mm posterior to Bregma, 2.4 mm lateral from midline, and 8.5 mm ventral from skull, the blade was extended 2.0 mm toward midline, raised 2.5 mm dorsally, retracted and extended again, and then returned 2.5 mm ventrally. The wire blade was retracted and the knife withdrawn. Next, a 22-gauge metal guide cannula was permanently fixed into place supranigrally at 5.0 mm posterior to Bregma, 2.0 mm lateral to midline, and 6.8 mm ventral to skull. A second set of intact unlesioned rats were cannulated supranigrally at the same coordinates. […]
Immunopositive cells were counted in the central substantia nigra. […] To reveal percent survival, percent changes were calculated by dividing the ipsilateral value by contralateral value.

A short description of experiment [3]: [3H]-GPE quantitative receptor autoradiography in coronal brain sections. The format is binding, rat. As to conditions: 1 hour room temperature, right side neurons absent due to injury, little reaction. The procedure: A histological experiment to locate GPE binding sites within the rat brain employed quantitative receptor autoradiography to locate [3H]-GPE binding in coronal sections of the brain as previously described in Dragunow et al (1988, Brain Research 462, 252-257). Fresh frozen brain sections were cut on a cryostat and stored at -80 deg C. until use. Sections were then thawed and pre-incubated with 50 mM Tris HCl (pH 7.4) for 10 minutes at room temperature (250 μl per section). Sections were then dried and 250 μl per section of 5×10^5 counts/min^-1 of [3H]-GPE also made up in Tris HCl buffer (50 mM, pH 7.4) was added for 1 hour at room temperature. Sections were then washed two times for one minute each in ice-cold Tris-HCl followed by one rinse for 1 minute in ice-cold distilled water. Sections were then dried overnight at 4 deg C. and apposed to [3H] sensitive film for 2 weeks, and then developed to produce autoradiograms.

Consider `NCC(=O)N1CCC[C@H]1C(=O)N[C@@H](CCC(=O)O)C(=O)O` [GPE, gly-pro-glu], for which, in experiment [1], the “protection from 6-OHDA toxicity (dopamine uptake)” value is on record as “protects mesencephalic neurons”. Moreover, the “percent cell survival of TH immunopositive neurons” value in experiment [2] is “increased”. Further, the “[3H]-GPE binding in hippocampus” value in experiment [3] is reported as “left hippocampus has bound the radioactive material”.
